Data from US8557796B2, “Substituted 1-oxa-2,8-diaza-spiro [4,5] dec-2-ene derivatives and related treatment methods” (Gruenenthal GmbH, priority 2001, dated 2013).

tested on: batrachotoxin (BTX) binding site (binding site 2) of the sodium channel; assay: Bond test on the sodium channel, binding site 2 (BTX bond), [3H]-batrachotoxinin A20 α-benzoate displacement; conditions: rat cerebrocortex synaptosomes

With `CCOC(=O)C1CCCCN1C(=O)C1=NOC2(CCN(S(=O)(=O)c3ccc(Cl)s3)CC2)C1` (centres unmarked) [Example 155, 1-[8-(5-chloro-thiophene-2-sulphonyl)-1-oxa-2,8-diaza-spiro[4,5]dec-2-ene-3-carbonyl]-piperidine-2-carboxylic acid ethyl ester] as the molecule, how does the “BTX bond, 10 μM, % inhibition” value read?
The value was 48%.

Which “BTX bond, 10 μM, % inhibition” value does the source give for `O=C(NCc1cccs1)C1=NOC2(CCN(S(=O)(=O)c3ccccc3Cl)CC2)C1` [Example 156, 8-(2-chloro-benzenesulphonyl)-1-oxa-2,8-diaza-spiro[4,5]dec-2-ene-3-carboxylic acid (thiophen-2-ylmethyl)-amide] here?
The value was 70%.

Which “BTX bond, 10 μM, % inhibition” value does the source give for `COc1ccc(OC)c(CN(Cc2ccco2)C(=O)C2=NOC3(CCN(S(=O)(=O)c4ccc(F)cc4)CC3)C2)c1` [Example 160] here?
Its value is 75%.

`CN(C)S(=O)(=O)N1CCC2(CC1)CC(C(=O)NC1CCCC1OCc1ccccc1)=NO2` (centres unmarked) [Example 163, 8-dimethylsulphamoyl-1-oxa-2,8-diaza-spiro[4,5]dec-2-ene-3-acarboxylic cid (2-benzyloxy-cyclopentyl)-amide] was tested. Which “BTX bond, 10 μM, % inhibition” value did it give?
The value was 40%.

How did the “BTX bond, 10 μM, % inhibition” value turn out when `COc1ccc(S(=O)(=O)N2CCC3(CC2)CC(C(=O)NC(C)Cc2ccc(Cl)cc2)=NO3)cc1` (centres unmarked) [Example 164, 8-(4-methoxy-benzenesulphonyl)-1-oxa-2,8-diaza-spiro[4,5]dec-2-ene-3-carboxylic acid [2-(4-chloro-phenyl)-1-methyl-ethyl]-amide] was run?
Its value is 52%.

`O=C(NCc1ccccc1)C1=NOC2(CCN(C(=O)COc3cccc(Cl)c3)CC2)C1` [Example 166, 8-[2-(3-chloro-phenoxy)-acetyl]-1-oxa-2,8-diaza-spiro[4,5]dec-2-ene-3-carboxylic acid benzylamide] was tested. Which “BTX bond, 10 μM, % inhibition” value did it give?
Its value is 58%.

With `CC(Cc1ccc(Cl)cc1)NC(=O)C1=NOC2(CCN(S(=O)(=O)c3ccc(Cl)s3)CC2)C1` (centres unmarked) [Example 168, 8-(5-chloro-thiophene-2-sulphonyl)-1-oxa-2,8-diaza-spiro[4,5]dec-2-ene-3-carboxylic acid [2-(4-chloro-phenyl)-1-methyl-ethyl]-amide] as the molecule, how does the “BTX bond, 10 μM, % inhibition” value read?
The value was 69%.

`Cc1ccc(F)c(C(=O)N2CCC3(CC2)CC(C(=O)NCc2cccs2)=NO3)c1F` [Example 170, 8-(2,6-difluoro-3-methyl-benzoyl)-1-oxa-2,8-diaza-spiro[4,5]dec-2-ene-3-carboxylic acid (thiophen-2-ylmethyl)-amide] was tested. Which “BTX bond, 10 μM, % inhibition” value did it give?
The value was 59%.

For `O=C(NCc1ccccc1)C1=NOC2(CCN(C(=O)COCc3ccccc3)CC2)C1` [Example 171, 8-(2-benzyloxy-acetyl)-1-oxa-2,8-diaza-spiro[4,5]dec-2-ene-3-carboxylic acid benzylamide], which “BTX bond, 10 μM, % inhibition” value is on record?
Its value is 44%.

How did the “BTX bond, 10 μM, % inhibition” value turn out when `O=C(Nc1ccccc1)C1=NOC2(CCN(C(=O)c3cccc(Cl)c3Cl)CC2)C1` [Example 172, 8-(2,3-dichloro-benzoyl)-1-oxa-2,8-diaza-spiro[4,5]dec-2-ene-3-carboxylic acid phenylamide] was run?
Its value is 60%.

For `COc1ccc(Br)cc1S(=O)(=O)N1CCC2(CC1)CC(C(=O)NC1CCCC1)=NO2` [Example 173, 8-(5-bromo-2-methoxy-benzenesulphonyl)-1-oxa-2,8-diaza-spiro[4,5]dec-2-ene-3-carboxylic acid cyclopentylamide], which “BTX bond, 10 μM, % inhibition” value is on record?
Its value is 62%.

Which “BTX bond, 10 μM, % inhibition” value does the source give for `O=C(C1=NOC2(CCN(S(=O)(=O)c3ccc(OC(F)(F)F)cc3)CC2)C1)N1CCN(CCCc2ccccc2)CC1` [Example 176, [4-(3-phenyl-propyl)-piperazin-l-yl]-[8-(4-trifluoromethoxy-benzenesulphonyl)-1-oxa-2,8-diaza-spiro [4,5]dec-2-en-3-yl]-methanone] here?
Its value is 76%.

How did the “BTX bond, 10 μM, % inhibition” value turn out when `Cc1onc(-c2c(F)cccc2Cl)c1C(=O)N1CCC2(CC1)CC(C(=O)NCc1ccccc1)=NO2` [Example 177, 8-[3-(2-chloro-6-fluorophenyl)-5-methyl-isoxazole-4-carbonyl]-1-oxa-2,8-diaza-spiro [4,5]dec-2-ene-3-carboxylic acid benzylamide] was run?
The value was 45%.

With `CCOC(=O)C1CCCCN1C(=O)C1=NOC2(CCN(C(=O)c3cc(C(C)(C)C)oc3C)CC2)C1` (centres unmarked) [Example 179, 1-[8-(5-tert-butyl-2-methyl-furan-3-carbonyl)-1-oxa-2,8-diaza-spiro[4,5]dec-2-ene-3-carbonyl]-piperidine-2-carboxylic acid ethyl ester] as the molecule, how does the “BTX bond, 10 μM, % inhibition” value read?
Its value is 55%.

For `O=C(NCc1ccccc1)C1=NOC2(CCN(C(=O)c3cccc(SC(F)F)c3)CC2)C1` [Example 180, 8-(3-difluoromethylsulphanyl-benzoyl)-1-oxa-2,8-diaza-spiro[4,5]dec-2-ene-3-carboxylic acid benzylamide], which “BTX bond, 10 μM, % inhibition” value is on record?
Its value is 57%.

With `O=C(Nc1ccccc1)C1=NOC2(CCN(C(=O)c3ccc(Br)cc3)CC2)C1` [Example 181, 8-(4-bromo-benzoyl)-1-oxa-2,8-diaza-spiro[4,5]dec-2-ene-3-acarboxylic cid phenylamide] as the molecule, how does the “BTX bond, 10 μM, % inhibition” value read?
The value was 50%.

`COc1ccc(S(=O)(=O)N2CCC3(CC2)CC(C(=O)NC2CC2c2ccccc2)=NO3)cc1` (centres unmarked) [Example 182, 8-(4-methoxy-benzenesulphonyl)-1-oxa-2,8-diaza-spiro[4,5]dec-2-ene-3-carboxylic acid (2-phenyl-cyclopropyl)-amide] was tested. Which “BTX bond, 10 μM, % inhibition” value did it give?
Its value is 47%.

With `O=C(NCc1cccs1)C1=NOC2(CCN(C(=O)CCCOc3ccccc3)CC2)C1` [Example 183] as the molecule, how does the “BTX bond, 10 μM, % inhibition” value read?
The value was 68%.

With `O=C(NCc1cccs1)C1=NOC2(CCN(C(=O)c3ccc(F)c(Cl)c3)CC2)C1` [Example 184, 8-(3-chloro-4-fluorobenzoyl)-1-oxa-2,8-diaza-spiro[4,5]dec-2-ene-3-carboxylic acid (thiophen-2-ylmethyl)-amide] as the molecule, how does the “BTX bond, 10 μM, % inhibition” value read?
Its value is 73%.

For `O=C(C1=NOC2(CCN(S(=O)(=O)c3ccc(F)cc3)CC2)C1)N1CCN(CCCc2ccccc2)CC1` [Example 186, [8-(4-fluoro-benzenesulphonyl)-1-oxa-2,8-diaza-spiro[4,5]dec-2-en-3-yl]-[4-(3-phenyl-propyl)-piperazin-1-yl]-methanone], which “BTX bond, 10 μM, % inhibition” value is on record?
The value was 56%.

How did the “BTX bond, 10 μM, % inhibition” value turn out when `O=C(NC1CCCC1)C1=NOC2(CCN(C(=O)c3ccccc3COC(=O)c3ccccc3)CC2)C1` [Example 188] was run?
The value was 77%.

How did the “BTX bond, 10 μM, % inhibition” value turn out when `CN(C)S(=O)(=O)N1CCC2(CC1)CC(C(=O)N1CCN(Cc3ccc(C(C)(C)C)cc3)CC1)=NO2` [Example 189, 3-[4-(4-tert-butyl-benzyl)-piperazine-1-carbonyl]-1-oxa-2,8-diaza-spiro[4,5]dec-2-ene-8-sulphonic acid dimethylamide] was run?
Its value is 69%.

Which “BTX bond, 10 μM, % inhibition” value does the source give for `O=C(NC1CCCC1OCc1ccccc1)C1=NOC2(CCN(S(=O)(=O)c3ccc(Cl)s3)CC2)C1` (centres unmarked) [Example 191] here?
Its value is 75%.

With `O=C(NCc1cccs1)C1=NOC2(CCN(C(=O)c3cccc4ccccc34)CC2)C1` [Example 192, 8-(naphthalene-1-carbonyl)-1-oxa-2,8-diaza-spiro[4,5]dec-2-ene-3-carboxylic acid (thiophen-2-ylmethyl)-amide] as the molecule, how does the “BTX bond, 10 μM, % inhibition” value read?
Its value is 87%.

Which “BTX bond, 10 μM, % inhibition” value does the source give for `O=C(NCCCc1ccccc1)C1=NOC2(CCN(S(=O)(=O)c3ccc(F)cc3)CC2)C1` [Example 193, 8-(4-fluoro-benzenesulphonyl)-1-oxa-2,8-diaza-spiro[4,5]dec-2-ene-3-carboxylic acid (3-phenyl-propyl)-amide] here?
Its value is 66%.

For `O=C(NCC1COc2ccccc2O1)C1=NOC2(CCN(S(=O)(=O)c3ccc(Cl)s3)CC2)C1` (centres unmarked) [Example 194, 8-(5-chloro-thiophene-2-sulphonyl)-1-oxa-2,8-diaza-spiro[4,5]dec-2-ene-3-carboxylic acid (2,3-dihydro-benzo[1,4]dioxin-2-ylmethyl)-amide], which “BTX bond, 10 μM, % inhibition” value is on record?
Its value is 68%.

Which “BTX bond, 10 μM, % inhibition” value does the source give for `CCOC(=O)C1CCCCN1C(=O)C1=NOC2(CCN(C(=O)c3ccc(C(C)(C)C)cc3)CC2)C1` (centres unmarked) [Example 195, 1-[8-(4-tert-butyl-benzoyl)-1-oxa-2,8-diaza-spiro[4,5]dec-2-ene-3-carbonyl]-piperidine-2-carboxylic acid ethyl ester] here?
Its value is 85%.

Which “BTX bond, 10 μM, % inhibition” value does the source give for `O=C(NCCc1cccc(C(F)(F)F)c1)C1=NOC2(CCN(S(=O)(=O)c3ccc(F)cc3)CC2)C1` [Example 196] here?
The value was 51%.

How did the “BTX bond, 10 μM, % inhibition” value turn out when `Cc1onc(-c2c(Cl)cccc2Cl)c1C(=O)N1CCC2(CC1)CC(C(=O)NCc1cccs1)=NO2` [Example 197, 8-[3-(2,6-dichloro-phenyl)-5-methyl-isoxazole-4-carbonyl]-1-oxa-2,8-diaza-spiro[4,5]dec-2-ene-3-carboxylic acid (thiophen-2-ylmethyl)-amide] was run?
Its value is 70%.

How did the “BTX bond, 10 μM, % inhibition” value turn out when `O=C(NC1CCCC1OCc1ccccc1)C1=NOC2(CCN(S(=O)(=O)c3ccc(F)cc3)CC2)C1` (centres unmarked) [Example 199] was run?
Its value is 67%.

For `O=C(NC1CCCC1OCc1ccccc1)C1=NOC2(CCN(S(=O)(=O)c3cccc(C(F)(F)F)c3)CC2)C1` (centres unmarked) [Example 201, 8-(3-trifluoromethyl-benzenesulphonyl)-1-oxa-2,8-diaza-spiro[4,5]dec-2-ene-3-carboxylic acid (2-benzyloxy-cyclopentyl)-amide], which “BTX bond, 10 μM, % inhibition” value is on record?
The value was 61%.

`O=C(NCc1ccccc1)C1=NOC2(CCN(C(=O)c3ccc(F)c(Cl)c3)CC2)C1` [Example 205, 8-(3-chloro-4-fluorobenzoyl)-1-oxa-2,8-diaza-spiro[4,5]dec-2-ene-3-carboxylic acid benzylamide] was tested. Which “BTX bond, 10 μM, % inhibition” value did it give?
Its value is 53%.

How did the “BTX bond, 10 μM, % inhibition” value turn out when `O=C(NCc1ccccc1F)C1=NOC2(CCN(S(=O)(=O)c3ccc(F)cc3)CC2)C1` [Example 207, 8-(4-fluoro-benzenesulphonyl)-1-oxa-2,8-diaza-spiro[4,5]dec-2-ene-3-carboxylic acid 2 fluorobenzylamide] was run?
The value was 56%.

For `O=C(NCc1cccs1)C1=NOC2(CCN(C(=O)c3cccc(Cl)c3)CC2)C1` [Example 208], which “BTX bond, 10 μM, % inhibition” value is on record?
Its value is 74%.

same assay, conditions: rat cerebrocortex synaptosomes, 10 µM

With `COc1ccc(S(=O)(=O)N2CCC3(CC2)CC(C(=O)NC2CCCC2OCc2ccccc2)=NO3)cc1` (centres unmarked) [Example 169, 8-(4-methoxy-benzenesulphonyl)-1-oxa-2,8-diaza-spiro[4,5]dec-2-ene-3-carboxylic acid (2-benzyloxy-cyclopentyl)-amide] as the molecule, how does the “BTX bond, 10 μM, % inhibition” value read?
Its value is 48%.
